Assay: method code SF-AS, from DOI: 10.2298/jsc0810967p
Settings: pH 7.4

| logD | SMILES |
| --- | --- |
| 4.5 | Cc1cc2ncn(Cc3cccc(F)c3)c2cc1C |
| 5.05 | Cc1cc2ncn(Cc3cccc(Cl)c3)c2cc1C |
| 4.85 | Cc1cccc(Cn2cnc3cc(C)c(C)cc32)c1 |
| 4.28 | COc1cccc(Cn2cnc3cc(C)c(C)cc32)c1 |

Reference: the SangsterLogP compilation
